Source: ChEMBL document CHEMBL5465560, “Selectivity Literature for EUbOPEN Chemogenomic Library” (2024)
One block for each compound: values may come before it.

How the values were obtained:
[1] = target: Tyrosine-protein kinase BTK (Homo sapiens, UniProt Q06187); experiment: Selectivity interaction (Kinase panel (Z-LYTE Assay)) EUB0001632a BTK; conditions: at 10 µM
[2] = tested on: Epidermal growth factor receptor (Homo sapiens), P00533 [UNDEFINED MUTATION]; experiment: Selectivity interaction (KinomeScan (DiscoverX)) EUB0000607a EGFR; conditions: at 10 µM
Epidermal growth factor receptor (Homo sapiens), P00533 [UNDEFINED MUTATION], sequence (P00533 whole entry, looked up, change not shown): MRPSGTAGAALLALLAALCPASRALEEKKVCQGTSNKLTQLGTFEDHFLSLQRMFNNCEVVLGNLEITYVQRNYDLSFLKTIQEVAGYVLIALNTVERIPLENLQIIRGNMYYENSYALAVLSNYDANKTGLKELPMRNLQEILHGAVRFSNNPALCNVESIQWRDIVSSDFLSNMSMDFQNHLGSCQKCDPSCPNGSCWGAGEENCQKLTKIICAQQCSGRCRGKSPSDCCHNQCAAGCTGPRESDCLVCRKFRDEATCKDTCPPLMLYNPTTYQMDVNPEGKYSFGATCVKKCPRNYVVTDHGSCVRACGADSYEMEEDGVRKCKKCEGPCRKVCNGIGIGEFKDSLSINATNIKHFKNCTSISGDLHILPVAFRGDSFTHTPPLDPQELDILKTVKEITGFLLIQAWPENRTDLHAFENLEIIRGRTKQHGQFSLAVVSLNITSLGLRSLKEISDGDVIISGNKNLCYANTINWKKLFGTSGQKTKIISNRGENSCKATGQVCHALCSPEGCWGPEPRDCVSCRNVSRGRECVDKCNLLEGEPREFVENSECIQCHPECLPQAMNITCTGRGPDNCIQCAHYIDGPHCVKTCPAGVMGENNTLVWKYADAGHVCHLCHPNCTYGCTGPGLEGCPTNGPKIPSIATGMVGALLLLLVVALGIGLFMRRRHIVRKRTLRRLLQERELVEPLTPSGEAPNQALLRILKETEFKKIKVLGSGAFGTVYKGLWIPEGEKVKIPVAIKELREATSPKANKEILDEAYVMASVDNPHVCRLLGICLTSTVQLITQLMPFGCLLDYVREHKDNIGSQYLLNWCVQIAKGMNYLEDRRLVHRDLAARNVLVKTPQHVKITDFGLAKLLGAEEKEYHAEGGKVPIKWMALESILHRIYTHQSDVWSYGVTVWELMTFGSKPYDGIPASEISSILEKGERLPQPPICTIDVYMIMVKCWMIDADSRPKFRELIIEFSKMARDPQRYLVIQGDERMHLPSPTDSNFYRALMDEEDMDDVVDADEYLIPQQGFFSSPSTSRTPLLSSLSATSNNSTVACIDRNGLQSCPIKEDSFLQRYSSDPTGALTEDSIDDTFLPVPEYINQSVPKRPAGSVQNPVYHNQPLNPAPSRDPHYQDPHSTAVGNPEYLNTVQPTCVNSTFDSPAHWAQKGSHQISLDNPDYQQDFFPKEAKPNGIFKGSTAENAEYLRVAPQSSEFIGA

[3] = target: T1, Activin receptor type-1B (Homo sapiens) (UniProt P36896); experiment: Selectivity interaction (Kinase panel (Invitrogen)) EUB0000639a ACVR1B; conditions: at 200 nM
T1 sequence (whole entry): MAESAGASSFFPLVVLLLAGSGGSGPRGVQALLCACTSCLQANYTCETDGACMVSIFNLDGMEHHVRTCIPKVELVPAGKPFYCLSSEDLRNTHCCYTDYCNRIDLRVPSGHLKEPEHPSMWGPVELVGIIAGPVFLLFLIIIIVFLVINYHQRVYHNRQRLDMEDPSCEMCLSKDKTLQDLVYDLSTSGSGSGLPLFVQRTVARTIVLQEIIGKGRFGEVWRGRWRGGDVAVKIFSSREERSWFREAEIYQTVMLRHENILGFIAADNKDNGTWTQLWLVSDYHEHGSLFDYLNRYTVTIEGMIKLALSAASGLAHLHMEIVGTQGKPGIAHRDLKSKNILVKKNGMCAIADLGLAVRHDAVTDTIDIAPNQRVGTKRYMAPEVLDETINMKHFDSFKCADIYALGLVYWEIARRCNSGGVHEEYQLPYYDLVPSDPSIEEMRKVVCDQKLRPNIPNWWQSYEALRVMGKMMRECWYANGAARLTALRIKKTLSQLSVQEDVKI

[4] = target: Cyclin-dependent kinase 5/CDK5 activator 1 (Homo sapiens) (UniProt Q00535+Q15078); experiment: Selectivity interaction (Kinase panel (Invitrogen)) EUB0000639a CDK5; assay type: protein-complex assay; conditions: at 200 nM
[5] = target: T2, MAP/microtubule affinity-regulating kinase 4 (Homo sapiens) (UniProt Q96L34); experiment: Selectivity interaction (ActivX KiNativ screen (kinase selectivity in THP-1 cell lysates)) EUB0000639a MARK4; assay type: subcellular; conditions: lysate, at 0.04 µM
T2 sequence (whole entry): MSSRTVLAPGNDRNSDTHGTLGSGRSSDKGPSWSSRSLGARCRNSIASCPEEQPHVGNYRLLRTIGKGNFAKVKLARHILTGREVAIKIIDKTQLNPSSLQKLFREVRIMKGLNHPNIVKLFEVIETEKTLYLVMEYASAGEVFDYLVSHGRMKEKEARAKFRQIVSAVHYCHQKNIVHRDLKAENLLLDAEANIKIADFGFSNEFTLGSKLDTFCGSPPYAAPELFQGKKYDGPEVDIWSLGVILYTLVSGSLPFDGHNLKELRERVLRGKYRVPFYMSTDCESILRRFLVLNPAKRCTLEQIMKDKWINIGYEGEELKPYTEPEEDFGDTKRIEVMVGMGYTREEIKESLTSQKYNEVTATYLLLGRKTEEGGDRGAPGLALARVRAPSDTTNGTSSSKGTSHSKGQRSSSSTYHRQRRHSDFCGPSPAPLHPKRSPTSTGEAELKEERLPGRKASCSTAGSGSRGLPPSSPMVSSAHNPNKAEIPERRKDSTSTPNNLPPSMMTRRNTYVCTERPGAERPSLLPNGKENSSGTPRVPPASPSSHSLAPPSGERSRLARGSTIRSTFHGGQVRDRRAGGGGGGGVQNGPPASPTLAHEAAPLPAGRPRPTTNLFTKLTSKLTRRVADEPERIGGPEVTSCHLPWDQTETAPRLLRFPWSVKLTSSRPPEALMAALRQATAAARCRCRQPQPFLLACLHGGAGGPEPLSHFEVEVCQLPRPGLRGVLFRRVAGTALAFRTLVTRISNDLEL

[6] = target: Rho-associated protein kinase 1 (Homo sapiens) (UniProt Q13464); experiment: Selectivity interaction (Ambit KINOMEscan and KiNATiv profiling in Jurkat cells) EUB0000090b ROCK1; assay type: cell-based; conditions: at 1 µM
Rho-associated protein kinase 1 (Homo sapiens), sequence (Q13464 2-1354 limits assumed): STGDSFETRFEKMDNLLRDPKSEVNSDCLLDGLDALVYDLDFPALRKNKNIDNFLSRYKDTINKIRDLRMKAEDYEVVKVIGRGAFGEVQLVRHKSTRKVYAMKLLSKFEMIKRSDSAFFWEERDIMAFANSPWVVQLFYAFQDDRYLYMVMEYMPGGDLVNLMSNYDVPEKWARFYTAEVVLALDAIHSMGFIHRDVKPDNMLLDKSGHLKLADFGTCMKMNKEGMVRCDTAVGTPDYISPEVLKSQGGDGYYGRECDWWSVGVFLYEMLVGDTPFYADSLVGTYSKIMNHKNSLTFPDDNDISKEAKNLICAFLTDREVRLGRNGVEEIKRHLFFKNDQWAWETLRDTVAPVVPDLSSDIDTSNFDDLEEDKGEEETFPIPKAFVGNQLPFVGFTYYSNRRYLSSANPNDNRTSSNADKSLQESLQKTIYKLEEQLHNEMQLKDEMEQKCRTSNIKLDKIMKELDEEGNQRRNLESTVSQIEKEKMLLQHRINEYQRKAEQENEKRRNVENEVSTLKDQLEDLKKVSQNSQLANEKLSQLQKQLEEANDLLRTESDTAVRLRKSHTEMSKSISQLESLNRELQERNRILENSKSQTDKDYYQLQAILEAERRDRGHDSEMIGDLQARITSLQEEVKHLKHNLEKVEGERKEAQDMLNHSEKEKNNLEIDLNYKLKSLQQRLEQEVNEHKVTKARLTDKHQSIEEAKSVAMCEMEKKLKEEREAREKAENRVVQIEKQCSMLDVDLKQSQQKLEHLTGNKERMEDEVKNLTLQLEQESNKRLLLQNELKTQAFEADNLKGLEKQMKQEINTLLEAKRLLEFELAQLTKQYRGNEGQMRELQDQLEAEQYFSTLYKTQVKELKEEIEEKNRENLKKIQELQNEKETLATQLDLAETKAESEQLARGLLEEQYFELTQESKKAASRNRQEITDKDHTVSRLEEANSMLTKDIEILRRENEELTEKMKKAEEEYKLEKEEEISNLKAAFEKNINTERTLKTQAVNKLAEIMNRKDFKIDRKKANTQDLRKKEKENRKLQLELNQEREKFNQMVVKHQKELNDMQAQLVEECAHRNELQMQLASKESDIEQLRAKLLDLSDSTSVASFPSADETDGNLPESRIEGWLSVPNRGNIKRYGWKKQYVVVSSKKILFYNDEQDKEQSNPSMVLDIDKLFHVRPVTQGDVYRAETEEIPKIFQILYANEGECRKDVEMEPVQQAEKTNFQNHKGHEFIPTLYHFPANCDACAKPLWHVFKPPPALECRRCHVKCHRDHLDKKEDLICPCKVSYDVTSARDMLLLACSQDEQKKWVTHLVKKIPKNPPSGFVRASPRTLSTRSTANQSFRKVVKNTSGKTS

[7] = target: T3, Aurora kinase A (Homo sapiens) (UniProt O14965); experiment: Selectivity interaction (KinomeScan (DiscoverX)) EUB0001079a STK6; conditions: at 1 µM
T3 sequence (whole entry): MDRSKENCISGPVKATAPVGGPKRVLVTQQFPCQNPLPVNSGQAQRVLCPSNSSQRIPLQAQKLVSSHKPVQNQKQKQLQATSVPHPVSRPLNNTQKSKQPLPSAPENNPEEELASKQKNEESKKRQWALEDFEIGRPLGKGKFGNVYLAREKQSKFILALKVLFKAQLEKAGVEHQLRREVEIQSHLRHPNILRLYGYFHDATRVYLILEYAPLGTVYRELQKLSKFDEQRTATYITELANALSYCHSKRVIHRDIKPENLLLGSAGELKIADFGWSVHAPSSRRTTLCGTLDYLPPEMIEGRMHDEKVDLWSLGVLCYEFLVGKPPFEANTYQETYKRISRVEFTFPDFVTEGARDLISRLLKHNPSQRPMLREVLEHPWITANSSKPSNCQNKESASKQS

[8] = target: Serine/threonine-protein kinase pim-3 (Homo sapiens) (UniProt Q86V86); experiment: Selectivity interaction (KinomeScan (DiscoverX)) EUB0001079a PIM3; conditions: at 1 µM
[9] = target: T4, cGMP-dependent protein kinase 1 (Homo sapiens) (UniProt Q13976); experiment: Selectivity interaction (KinomeScan (DiscoverX)) EUB0000229b PRKG1; conditions: at 10 µM
T4 sequence (whole entry): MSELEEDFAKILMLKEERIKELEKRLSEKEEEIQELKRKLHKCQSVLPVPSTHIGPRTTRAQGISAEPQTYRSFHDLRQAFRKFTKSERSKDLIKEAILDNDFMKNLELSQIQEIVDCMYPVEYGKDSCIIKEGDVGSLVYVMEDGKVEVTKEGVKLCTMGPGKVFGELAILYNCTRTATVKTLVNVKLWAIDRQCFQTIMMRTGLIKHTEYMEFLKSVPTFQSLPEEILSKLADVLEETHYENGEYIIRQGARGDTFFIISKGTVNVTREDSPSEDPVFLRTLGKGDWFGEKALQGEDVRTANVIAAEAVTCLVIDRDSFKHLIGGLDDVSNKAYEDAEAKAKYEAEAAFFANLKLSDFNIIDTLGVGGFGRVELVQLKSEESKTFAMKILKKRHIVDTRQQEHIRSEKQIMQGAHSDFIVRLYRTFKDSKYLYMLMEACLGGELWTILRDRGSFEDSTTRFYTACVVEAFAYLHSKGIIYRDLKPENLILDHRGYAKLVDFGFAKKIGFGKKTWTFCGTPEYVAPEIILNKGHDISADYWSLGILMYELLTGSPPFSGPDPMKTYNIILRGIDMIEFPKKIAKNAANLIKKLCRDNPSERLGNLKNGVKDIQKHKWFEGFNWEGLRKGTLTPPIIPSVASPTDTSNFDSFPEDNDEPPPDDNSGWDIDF

Misshapen-like kinase 1 = Misshapen-like kinase 1 (Homo sapiens, UniProt Q8N4C8); experiment: Selectivity interaction (ActivX KiNativ screen (ex vivo kinase selectivity in human PBMCs)) EUB0001619a MINK1; assay type: cell-based; conditions: PBMC, at 1 µM
Misshapen-like kinase 1, sequence (Q8N4C8 whole entry, looked up): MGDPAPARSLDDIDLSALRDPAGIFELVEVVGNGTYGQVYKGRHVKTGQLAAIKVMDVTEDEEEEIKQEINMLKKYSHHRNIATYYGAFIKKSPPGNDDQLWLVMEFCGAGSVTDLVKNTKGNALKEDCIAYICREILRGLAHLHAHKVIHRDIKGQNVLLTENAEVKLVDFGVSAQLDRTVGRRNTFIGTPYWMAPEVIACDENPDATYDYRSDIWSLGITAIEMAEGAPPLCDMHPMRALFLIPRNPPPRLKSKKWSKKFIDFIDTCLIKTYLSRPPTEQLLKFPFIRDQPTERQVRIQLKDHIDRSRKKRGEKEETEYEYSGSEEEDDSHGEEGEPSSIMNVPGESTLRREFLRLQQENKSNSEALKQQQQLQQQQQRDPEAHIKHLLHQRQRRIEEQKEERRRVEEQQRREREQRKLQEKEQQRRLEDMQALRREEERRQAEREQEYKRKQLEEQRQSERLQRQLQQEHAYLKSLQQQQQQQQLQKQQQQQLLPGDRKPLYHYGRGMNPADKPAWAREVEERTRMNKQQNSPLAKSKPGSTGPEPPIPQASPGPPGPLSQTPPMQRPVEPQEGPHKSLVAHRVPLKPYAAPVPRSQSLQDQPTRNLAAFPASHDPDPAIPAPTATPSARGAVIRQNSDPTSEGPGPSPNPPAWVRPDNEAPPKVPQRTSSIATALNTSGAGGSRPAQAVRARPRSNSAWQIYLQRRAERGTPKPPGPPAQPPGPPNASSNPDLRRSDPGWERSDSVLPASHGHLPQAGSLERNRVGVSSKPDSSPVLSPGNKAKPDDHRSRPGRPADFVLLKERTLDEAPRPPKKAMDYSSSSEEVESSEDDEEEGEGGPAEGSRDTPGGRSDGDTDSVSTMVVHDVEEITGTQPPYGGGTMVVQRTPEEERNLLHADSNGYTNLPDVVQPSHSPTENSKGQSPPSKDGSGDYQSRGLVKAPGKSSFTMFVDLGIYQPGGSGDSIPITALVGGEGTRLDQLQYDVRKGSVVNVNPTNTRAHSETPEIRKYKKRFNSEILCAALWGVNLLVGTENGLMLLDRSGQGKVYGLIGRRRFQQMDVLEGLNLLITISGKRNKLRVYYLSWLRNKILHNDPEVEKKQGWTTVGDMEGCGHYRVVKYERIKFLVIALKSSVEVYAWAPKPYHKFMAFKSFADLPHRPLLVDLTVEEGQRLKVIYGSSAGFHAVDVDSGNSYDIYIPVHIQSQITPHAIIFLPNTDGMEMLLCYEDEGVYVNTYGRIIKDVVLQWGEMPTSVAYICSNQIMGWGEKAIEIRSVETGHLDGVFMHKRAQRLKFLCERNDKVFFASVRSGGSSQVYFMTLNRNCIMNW

Tyrosine-protein kinase BTK, sequence (Q06187 whole entry): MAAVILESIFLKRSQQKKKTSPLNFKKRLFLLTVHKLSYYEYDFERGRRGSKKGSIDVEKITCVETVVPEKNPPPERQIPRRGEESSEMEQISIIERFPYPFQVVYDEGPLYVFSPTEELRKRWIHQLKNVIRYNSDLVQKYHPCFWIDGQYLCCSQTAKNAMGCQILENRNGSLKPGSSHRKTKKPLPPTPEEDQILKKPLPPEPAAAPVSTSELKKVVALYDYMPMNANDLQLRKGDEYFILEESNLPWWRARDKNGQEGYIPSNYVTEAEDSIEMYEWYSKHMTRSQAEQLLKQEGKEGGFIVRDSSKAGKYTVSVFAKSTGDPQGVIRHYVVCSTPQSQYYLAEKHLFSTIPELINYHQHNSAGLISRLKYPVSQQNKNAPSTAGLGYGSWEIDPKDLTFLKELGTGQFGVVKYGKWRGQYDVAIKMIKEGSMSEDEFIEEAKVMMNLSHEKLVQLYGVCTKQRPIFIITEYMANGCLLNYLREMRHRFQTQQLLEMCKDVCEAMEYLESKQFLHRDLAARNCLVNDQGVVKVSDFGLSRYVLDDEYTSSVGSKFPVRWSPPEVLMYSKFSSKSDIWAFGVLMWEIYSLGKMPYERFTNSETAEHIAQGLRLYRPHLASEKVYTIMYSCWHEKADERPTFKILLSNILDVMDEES

% of control [1]: -7.51%
Structure (SMILES): Cn1cc(-n2cnc3c(NCc4nc5cc(Cl)c(Cl)cc5[nH]4)nc(N4CCOCC4)nc32)cn1

Structure (SMILES): CNC(=O)Nc1ccc(-c2nc(N3CC4CCC(C3)O4)c3cnn(C4CCC5(CC4)OCCO5)c3n2)cc1
% of control [2]: 50%

% of inhibition [3]: 2.54% | % of inhibition [4]: 2.19% | % of inhibition [5]: 15.9%
Structure (SMILES): CC[C@@H]1[C@H](F)C(=O)N[C@@H]1COc1nccc2cc(C(N)=O)c(OC)cc12 [ZIMLOVISERTIB]

Structure (SMILES): CN(C)C/C=C/C(=O)Nc1ccc(C(=O)N2CCCC(Nc3ncc(Cl)c(-c4c[nH]c5ccccc45)n3)C2)cc1 (stereo not given)
% of control [6]: 90%

Structure (SMILES): Nc1cnc(N2CCc3cc(S(=O)(=O)Nc4c(F)cc(Cl)cc4F)cc(N4CCCC4=O)c32)nc1 [TP-020n]
% of control [7]: 100% | % of control [8]: 98%

Structure (SMILES): COc1cc(N(C)c2ccnc3ccc(C(F)(F)F)cc23)cc(OC)c1OC
% binding [9]: 76%

Structure (SMILES): N#Cc1cccc(-c2c[nH]c3ncnc(N4CCOCC4)c23)c1
% of inhibition (Misshapen-like kinase 1): 15%
